According to ChEMBL document CHEMBL1201862, “PubChem BioAssay data set” (2004):
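These data come from cells grown in 96-well plates and exposed to compound for 48 hours at five concentrations. The concentration for 50% growth inhibition is given as GI50.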 Activity calls are given as the source filed them. Rule as the data show it: active = GI50 up to about 1.1 µM and inactive = higher.

How the values were obtained:
Test in all cases: DTP human tumour cell line panel, 48 h
COLO 205 = test system: COLO 205
SR = test system: SR
LOX IMVI = test system: LOX IMVI
EKVX = test system: EKVX
DMS-114 = test system: DMS-114
M19-MEL = test system: M19-MEL
UACC-257 = test system: UACC-257
SW-620 = test system: SW-620
SNB-78 = test system: SNB-78
HCC 2998 = test system: HCC 2998
XF498 = test system: XF498
DMS-273 = test system: DMS-273
MDA-MB-435 = test system: MDA-MB-435
786-0 = test system: 786-0
BT-549 = test system: BT-549
MDA-N = test system: MDA-N
MCF7 = test system: MCF7
T47D = test system: T47D
Hs-578T = test system: Hs-578T
NCI/ADR-RES = test system: NCI/ADR-RES

Measured: GI50

CCOC(=O)C1=C(C)N(C2OC(COC(=O)c3ccccc3)C(OC(=O)c3ccccc3)C2OC(=O)c2ccccc2)C(=S)NC1c1ccccc1 (centres undefined)
inactive: COLO 205 33.6 µM | SR 20 µM | LOX IMVI 58.9 µM | EKVX 6.79 µM | DMS-114 19 µM | M19-MEL 33.1 µM | UACC-257 33.5 µM | SW-620 33.3 µM | SNB-78 31.8 µM | HCC 2998 49.2 µM

O=C1C(Cl)N(c2cccc(Cl)c2)C1c1c[nH]c2ccccc12 (centres undefined)
inactive: COLO 205 > 100 µM | SR > 100 µM | EKVX > 100 µM | DMS-114 > 100 µM | M19-MEL > 100 µM | UACC-257 > 100 µM | XF498 > 100 µM | SW-620 > 100 µM

Cc1ccc(-c2cc(-c3ccco3)c(C#N)c(=O)n2C2OC(CO)C(O)C(O)C2O)cc1 (centres undefined)
inactive: DMS-273 50.7 µM | COLO 205 > 100 µM | SR > 100 µM | LOX IMVI 68.1 µM | EKVX > 100 µM | DMS-114 > 100 µM | UACC-257 58.5 µM | SW-620 93.8 µM | SNB-78 65.5 µM | HCC 2998 > 100 µM

COc1ccc(-c2cc(-c3cc(OC)c(OC)c(OC)c3)cc(-c3cc4ccccc4oc3=O)n2)cc1
inactive: COLO 205 > 100 µM | SR 9.79 µM | MDA-MB-435 16.7 µM | 786-0 2.16 µM | LOX IMVI 12.7 µM | BT-549 8.79 µM | EKVX 10.9 µM | UACC-257 16.7 µM | SW-620 25.2 µM | MDA-N 11.6 µM | MCF7 16.7 µM | T47D 7.19 µM | Hs-578T 2.38 µM | HCC 2998 17.3 µM | NCI/ADR-RES 7.18 µM

Clc1cc2c(c(CSC3=NCN(CC4CC4)CN3)c1)OCOC2
inactive: COLO 205 13.6 µM | SR 15.2 µM | MDA-MB-435 21.8 µM | 786-0 19.8 µM | LOX IMVI 25.1 µM | BT-549 19.1 µM | EKVX 20 µM | UACC-257 16.2 µM | SW-620 20.5 µM | MDA-N 16.3 µM | MCF7 20.8 µM | T47D 12.9 µM | Hs-578T 33.7 µM | HCC 2998 15.2 µM | NCI/ADR-RES 20.6 µM

O=C(O)Cc1cccc2c1Oc1ccccc1S2
inactive: DMS-273 > 100 µM | COLO 205 > 100 µM | 786-0 > 100 µM | LOX IMVI > 100 µM | EKVX > 100 µM | DMS-114 > 100 µM | M19-MEL > 100 µM | UACC-257 > 100 µM | SW-620 > 100 µM | SNB-78 > 100 µM | HCC 2998 > 100 µM
